# Laboratory results reported in US20020052295A1, “Diacyl derivatives of propylene diamine having herbicidal activity” (priority 1999, published 2002).
# Assays:
# Settings in all cases: lowest tested rate giving 80% or greater inhibition, approx. 14 days after planting and treating, greenhouse
# PANMI = assay: Pre-emergence herbicidal activity on PANMI (wild proso millet); assay type: in vivo, Panicum miliaceum
# Excerpt: (§1) All such uses, and the biological activity enabling such uses, are embraced by the term “herbicidal” herein. Tables 15 and 16 summarize results of tests conducted as described below to determine the pre-emergence herbicidal activity, in the form of a GR80 value, of illustrative compounds of this invention. […] Where herbicidal activity was evident but 80% inhibition was not achieved at the highest rate tested (typically 1000 g/ha), an asterisk (*) is shown in the following tables. Herbicidal activity evident in the form of symptoms of phytotoxicity, in the absence of at least 80% inhibition at any rate, is indicated in the tables by “phyto”. A blank cell in the following tables indicates no herbicidal or phytotoxic response at any rate tested.
# (§2) The pre-emergence tests were conducted by the following procedure. Topsoil was sieved to pass through a 1.27 cm screen. Fertilizer was added to the topsoil and the mixture was then sterilized by heating. The topsoil mixture was placed in a pot and compacted to a depth of 1.0 to 1.25 cm from the top of the pot. Seeds of each of several monocotyledonous and dicotyledonous annual plant species were placed on top of the soil. Additional soil was subsequently placed over the seeds to level-fill the pot. A known amount of each test compound dissolved or suspended in an appropriate organic solvent was diluted with a 50:50 mix of acetone and water and applied to the surface of the soil. After treatment the plants were placed in a greenhouse with a 30/21° C. day/night temperature regime where they received 0.64 cm of overhead irrigation. All subsequent watering consisted of a light overhead mist and/or subirrigation as needed for germination and growth.
# (§3) Approximately 14 days after planting and treating, the plants were observed and herbicidal efficacy recorded as percent inhibition by comparison with untreated plants.
# (§4) The plant species usually regarded as weeds which were utilized in the tests are identified in the tables below according to the following legend, in which “d” indicates a dicotyledonous species and “m” a monocotyledonous species. All monocotyledonous species included in the tests herein are grasses.
# BRAPP = assay: Pre-emergence herbicidal activity on BRAPP (broadleaf signalgrass); assay type: in vivo, Brachiaria platyphylla
# Excerpt: as §1, §2, §3, §4
# ECHCG = assay: Pre-emergence herbicidal activity on ECHCG (barnyardgrass); assay type: in vivo, Echinochloa crus-galli
# Excerpt: as §1, §2, §3, §4
# POROL = assay: Pre-emergence herbicidal activity on POROL (common purslane); assay type: in vivo, Portulaca oleracea
# Excerpt: as §1, §2, §3, §4
# PANDI = assay: Pre-emergence herbicidal activity on PANDI (fall panicum); assay type: in vivo, Panicum dichotomiflorum
# Excerpt: as §1, §2, §3, §4
# SORHA = assay: Pre-emergence herbicidal activity on SORHA (johnsongrass, seedling); assay type: in vivo, Sorghum halepense
# Excerpt: as §1, §2, §3, §4
# SETFA = assay: Pre-emergence herbicidal activity on SETFA (giant foxtail); assay type: in vivo, Setaria faberi
# Excerpt: as §1, §2, §3, §4
# CIRAR = assay: Pre-emergence herbicidal activity on CIRAR (canada thistle, seedling); assay type: in vivo, Cirsium arvense
# Excerpt: as §1, §2, §3, §4
# DATST = assay: Pre-emergence herbicidal activity on DATST (jimsonweed); assay type: in vivo, Datura stramonium
# Excerpt: as §1, §2, §3, §4
# ABUTH = assay: Pre-emergence herbicidal activity on ABUTH (velvetleaf); assay type: in vivo, Abutilon theophrasti
# Excerpt: as §1, §2, §3, §4
# AMARE = assay: Pre-emergence herbicidal activity on AMARE (redroot pigweed); assay type: in vivo, Amaranthus retroflexus
# Excerpt: as §1, §2, §3, §4
# SOLNI = assay: Pre-emergence herbicidal activity on SOLNI (black nightshade); assay type: in vivo, Solanum nigrum
# Excerpt: as §1, §2, §3, §4
# CHEAL = assay: Pre-emergence herbicidal activity on CHEAL (common lambsquarters); assay type: in vivo, Chenopodium album
# Excerpt: as §1, §2, §3, §4
# DIGSA = assay: Pre-emergence herbicidal activity on DIGSA (large crabgrass); assay type: in vivo, Digitaria sanguinalis
# Excerpt: as §1, §2, §3, §4
# CONAR = assay: Pre-emergence herbicidal activity on CONAR (field bindweed); assay type: in vivo, Convolvulus arvensis
# Excerpt: as §1, §2, §3, §4
Structure (SMILES),Pre-emergence activity (GR80) on PANMI (PANMI),Pre-emergence activity (GR80) on BRAPP (BRAPP),Pre-emergence activity (GR80) on ECHCG (ECHCG),Pre-emergence activity (GR80) on PORAL (POROL) [g/ha],Pre-emergence activity (GR80) on PANDI (PANDI),Pre-emergence activity (GR80) on SORHA (SORHA),Pre-emergence activity (GR80) on SETFA (SETFA),Pre-emergence activity (GR80) on CIRAR (CIRAR),Pre-emergence activity (GR80) on DATST (DATST),Pre-emergence activity (GR80) on ABUTH (ABUTH),Pre-emergence activity (GR80) on AMARE (AMARE) [g/ha],Pre-emergence activity (GR80) on SOLNI (SOLNI),Pre-emergence activity (GR80) on CHEAL (CHEAL) [g/ha],Pre-emergence activity (GR80) on DIGSA (DIGSA),Pre-emergence activity (GR80) on CONAR (CONAR)
CC(CNC(=O)c1cccc(C(F)(F)F)c1)NC(=O)c1cc(C(F)(F)F)ccc1Cl (stereo not drawn) [Example 9],phyto,phyto,phyto,125,500 g/ha,"* (Where herbicidal activity was evident but 80% inhibition was not achieved at the highest rate tested (typically 1000 g/ha), an asterisk (*) is shown)",1000 g/ha,750 g/ha,500 g/ha,phyto,125,500 g/ha,500,500 g/ha,
CC(CNC(=O)c1cccc(C(F)(F)F)c1)NC(=O)c1cccc(C(F)(F)F)c1I (stereo not drawn) [Example 15],,,phyto,500,phyto,,phyto,phyto,"* (Where herbicidal activity was evident but 80% inhibition was not achieved at the highest rate tested (typically 1000 g/ha), an asterisk (*) is shown)",,64,"* (Where herbicidal activity was evident but 80% inhibition was not achieved at the highest rate tested (typically 1000 g/ha), an asterisk (*) is shown)",125,phyto,phyto
CC(CNC(=O)c1cccc(C(F)(F)F)c1)NC(=O)c1cccc(Cl)c1 (stereo not drawn) [Example 43],phyto,phyto,,500,phyto,phyto,phyto,"* (Where herbicidal activity was evident but 80% inhibition was not achieved at the highest rate tested (typically 1000 g/ha), an asterisk (*) is shown)",phyto,,250,phyto,500,750 g/ha,
Cc1ccc(C)c(C(=O)NC(C)CNC(=O)c2cccc(C(F)(F)F)c2)c1 (stereo not drawn) [Example 64],500 g/ha,500 g/ha,1000 g/ha,250,250 g/ha,"* (Where herbicidal activity was evident but 80% inhibition was not achieved at the highest rate tested (typically 1000 g/ha), an asterisk (*) is shown)",1000 g/ha,250 g/ha,1000 g/ha,500 g/ha,250,250 g/ha,250,250 g/ha,
Cc1cccc(C(=O)NC(C)CNC(=O)c2cccc(C(F)(F)F)c2)c1C (stereo not drawn) [Example 67],,1000 g/ha,"* (Where herbicidal activity was evident but 80% inhibition was not achieved at the highest rate tested (typically 1000 g/ha), an asterisk (*) is shown)",500,500 g/ha,,750 g/ha,500 g/ha,500 g/ha,500 g/ha,500,,250,500 g/ha,1000 g/ha
CC(CNC(=O)c1cccc(Br)c1)NC(=O)c1cccc(C(F)(F)F)c1F (stereo not drawn) [Example 152],,,750 g/ha,125,,,,250 g/ha,750 g/ha,750 g/ha,250,500 g/ha,250,500 g/ha,
CC(CNC(=O)c1cccc(Cl)c1F)NC(=O)c1cccc(Cl)c1F (stereo not drawn) [Example 181],,,,,phyto,,phyto,"* (Where herbicidal activity was evident but 80% inhibition was not achieved at the highest rate tested (typically 1000 g/ha), an asterisk (*) is shown)","* (Where herbicidal activity was evident but 80% inhibition was not achieved at the highest rate tested (typically 1000 g/ha), an asterisk (*) is shown)",phyto,500,"* (Where herbicidal activity was evident but 80% inhibition was not achieved at the highest rate tested (typically 1000 g/ha), an asterisk (*) is shown)",750,500 g/ha,phyto
CC(CNC(=O)c1cccc(C(F)(F)F)c1)NC(=O)c1cc(C(C)(C)C)nn1C (stereo not drawn) [Example 262],,,,,,,,,,,,,,phyto,phyto
